Results: publication PMC12514577, “Activity-based probes and chemical proteomics uncover the biological impact of targeting HMG-CoA Synthase 1 in the mevalonate pathway” (The Journal of Biological Chemistry, 2025)

What was measured:
[1] = target: T1, 3-hydroxy-3-methylglutaryl-coenzyme A synthase 1 (HMGCS1) (Homo sapiens, UniProt Q01581); assay: Glu-C MS/MS of adduct on recombinant HMGCS1; dose-dependent competition with HG-FL in gel; competitive chemoproteomics in HEK293T; format: binding; set-up: recombinant HMGCS1 (pET60b-HMGCS1-TEV-6His)
T1 sequence (Q01581 1-520): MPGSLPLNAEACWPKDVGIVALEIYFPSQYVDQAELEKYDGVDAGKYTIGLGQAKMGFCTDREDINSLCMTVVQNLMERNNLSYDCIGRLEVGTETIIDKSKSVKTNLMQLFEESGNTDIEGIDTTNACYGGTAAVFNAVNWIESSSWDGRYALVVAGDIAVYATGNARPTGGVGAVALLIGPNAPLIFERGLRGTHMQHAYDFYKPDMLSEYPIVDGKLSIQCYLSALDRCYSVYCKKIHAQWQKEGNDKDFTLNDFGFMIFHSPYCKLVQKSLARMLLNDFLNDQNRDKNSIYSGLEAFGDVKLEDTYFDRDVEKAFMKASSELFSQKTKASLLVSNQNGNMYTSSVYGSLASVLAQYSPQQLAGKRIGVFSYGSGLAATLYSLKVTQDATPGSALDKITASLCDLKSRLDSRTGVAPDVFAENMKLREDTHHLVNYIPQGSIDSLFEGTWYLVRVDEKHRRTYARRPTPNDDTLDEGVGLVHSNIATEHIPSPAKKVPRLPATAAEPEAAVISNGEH

[2] = target: T1, 3-hydroxy-3-methylglutaryl-coenzyme A synthase 1 (HMGCS1); assay: competitive affinity purification TMT mass spectrometry and immunoblot in HEK293T cells; format: cell-based; set-up: endogenous HMGCS1 in HEK293T cells

Row | SMILES | Glu-C MS/MS of adduct on recombinant HMGCS1; dose-dependent competition with HG- [1] | competitive affinity purification TMT mass spectrometry and immunoblot in HEK293 [2]
1 | CC(=C\C(=O)O)/C=C(\C)C[C@H](C)CCCC[C@H]1OC(=O)[C@@H]1CO [HG, Hymeglusin] | Mass spectrometry analysis of recombinant HMGCS1, after incubation with HG, further confirmed the modification of C129 by HG | 
2 | CC(=C\C(=O)NCCOCCOCCNC(=O)CCCC[C@@H]1SC[C@@H]2NC(=O)N[C@@H]21)/C=C(\C)C[C@H](C)CCCC[C@H]1OC(=O)[C@@H]1CO [HG-biotin, Hymeglusin-biotin] |  | An orthogonal immunoblotting assay confirmed the strong enrichment of HMGCS1 by HG-biotin in DMSO pre-treated cells
